Reference: ChEMBL document CHEMBL5303573, “Mapping human microbiome drug metabolism by gut bacteria and their genes” (Nature, 2019)

How the values were obtained:
[1] = The drug is tested on Alistipes indistinctus strain: DSM22520 for biotransformation. The drug concentrations were measured before and after a 12-h incubation by liquid-chromatography-coupled mass spectrometry (LC–MS); conditions: 2 µM
[2] = The drug is tested on Clostridium sp. strain: fecal isolate for biotransformation. The drug concentrations were measured before and after a 12-h incubation by liquid-chromatography-coupled mass spectrometry (LC–MS); conditions: 2 µM
[3] = victivallis vadensis, 12 h, 2 µM
Description: The drug is tested on Victivallis vadensis strain: ATCC BAA-548 for biotransformation. The drug concentrations were measured before and after a 12-h incubation by liquid-chromatography-coupled mass spectrometry (LC–MS)

[4] = The drug is tested on Bifidobacterium breve strain: DSM20213 for biotransformation. The drug concentrations were measured before and after a 12-h incubation by liquid-chromatography-coupled mass spectrometry (LC–MS); conditions: 2 µM
[5] = The drug is tested on Eggerthella lenta strain: ATCC25559 for biotransformation. The drug concentrations were measured before and after a 12-h incubation by liquid-chromatography-coupled mass spectrometry (LC–MS); conditions: 2 µM
[6] = The drug is tested on Edwardsiella tarda strain: ATCC23685 for biotransformation. The drug concentrations were measured before and after a 12-h incubation by liquid-chromatography-coupled mass spectrometry (LC–MS); conditions: 2 µM
[7] = The drug is tested on Bacteroides vulgatus strain: ATCC8482 for biotransformation. The drug concentrations were measured before and after a 12-h incubation by liquid-chromatography-coupled mass spectrometry (LC–MS); conditions: phocaeicola vulgatus, 2 µM
[8] = The drug is tested on Bacteroides xylanisolvens strain: DSM18836 for biotransformation. The drug concentrations were measured before and after a 12-h incubation by liquid-chromatography-coupled mass spectrometry (LC–MS); conditions: 2 µM
[9] = anaerostipes sp., 12 h, 2 µM
Description: The drug is tested on Anaerostipes sp. strain: fecal isolate for biotransformation. The drug concentrations were measured before and after a 12-h incubation by liquid-chromatography-coupled mass spectrometry (LC–MS)

[10] = The drug is tested on Odoribacter splanchnicus strain: fecal isolate for biotransformation. The drug concentrations were measured before and after a 12-h incubation by liquid-chromatography-coupled mass spectrometry (LC–MS); conditions: 2 µM
[11] = The drug is tested on Bacteroides uniformis strain: ATCC8492 for biotransformation. The drug concentrations were measured before and after a 12-h incubation by liquid-chromatography-coupled mass spectrometry (LC–MS); conditions: 2 µM
[12] = The drug is tested on Bacteroides ovatus strain: ATCC8483 for biotransformation. The drug concentrations were measured before and after a 12-h incubation by liquid-chromatography-coupled mass spectrometry (LC–MS); conditions: 2 µM
[13] = The drug is tested on Bacteroides fragilis strain: ATCC43859 for biotransformation. The drug concentrations were measured before and after a 12-h incubation by liquid-chromatography-coupled mass spectrometry (LC–MS); conditions: 2 µM
[14] = bacteroides fragilis, 12 h, 2 µM
Description: The drug is tested on Bacteroides fragilis strain: DS-208 for biotransformation. The drug concentrations were measured before and after a 12-h incubation by liquid-chromatography-coupled mass spectrometry (LC–MS)

[15] = The drug is tested on Eubacterium rectale strain: ATCC33656 for biotransformation. The drug concentrations were measured before and after a 12-h incubation by liquid-chromatography-coupled mass spectrometry (LC–MS); conditions: agathobacter rectalis, 2 µM
[16] = The drug is tested on Parabacteroides merdae strain: ATCC43184 for biotransformation. The drug concentrations were measured before and after a 12-h incubation by liquid-chromatography-coupled mass spectrometry (LC–MS); conditions: 2 µM
[17] = bacteroides fragilis, 12 h, 2 µM; remark: listed apart in the source
Description: The drug is tested on Bacteroides fragilis strain: NCTC 9343 for biotransformation. The drug concentrations were measured before and after a 12-h incubation by liquid-chromatography-coupled mass spectrometry (LC–MS)

[18] = The drug is tested on Bacteroides cellulosilyticus strain: DSM14838 for biotransformation. The drug concentrations were measured before and after a 12-h incubation by liquid-chromatography-coupled mass spectrometry (LC–MS); conditions: 2 µM
[19] = bacteroides eggerthii, 12 h, 2 µM
Description: The drug is tested on Bacteroides eggerthii strain: DSM20697 for biotransformation. The drug concentrations were measured before and after a 12-h incubation by liquid-chromatography-coupled mass spectrometry (LC–MS)

[20] = The drug is tested on Bacteroides fragilis strain: HMW615 for biotransformation. The drug concentrations were measured before and after a 12-h incubation by liquid-chromatography-coupled mass spectrometry (LC–MS); conditions: 2 µM

Structure (SMILES)	Bacterial Biotransformation [1]	Bacterial Biotransformation [2]	Bacterial Biotransformation [3]	Bacterial Biotransformation [4]	Bacterial Biotransformation [5]	Bacterial Biotransformation [6]	Bacterial Biotransformation [7]	Bacterial Biotransformation [8]	Bacterial Biotransformation [9]	Bacterial Biotransformation [10]	Bacterial Biotransformation [11]	Bacterial Biotransformation [12]	Bacterial Biotransformation [13]	Bacterial Biotransformation [14]	Bacterial Biotransformation [15]	Bacterial Biotransformation [16]	Bacterial Biotransformation [17]	Bacterial Biotransformation [18]	Bacterial Biotransformation [19]	Bacterial Biotransformation [20]
CC(C)C[C@H]1C(=O)N2CCC[C@H]2[C@]2(O)O[C@](NC(=O)[C@@H]3C=C4c5cccc6[nH]c(Br)c(c56)C[C@H]4N(C)C3)(C(C)C)C(=O)N12.CS(=O)(=O)O [BROMOCRIPTINE MESYLATE]	Compound metabolized	Compound metabolized	Compound metabolized	Compound metabolized	Compound metabolized	Compound metabolized	Compound metabolized	Compound metabolized	Compound metabolized	Compound metabolized	Compound metabolized	Compound metabolized	–	Compound metabolized	Compound metabolized	Compound metabolized	Compound metabolized	Compound metabolized	Compound metabolized	Compound metabolized
CC(C)(C)NCC(O)c1cc(Cl)c(N)c(Cl)c1 (configuration not stated) [CLENBUTEROL]	Compound NOT metabolized	Compound NOT metabolized	Compound NOT metabolized	Compound NOT metabolized	Compound NOT metabolized	Compound NOT metabolized	Compound NOT metabolized	Compound NOT metabolized	Compound NOT metabolized	Compound NOT metabolized	Compound NOT metabolized	Compound NOT metabolized	Compound NOT metabolized	Compound NOT metabolized	Compound NOT metabolized	Compound NOT metabolized	Compound NOT metabolized	Compound NOT metabolized	Compound NOT metabolized	–
CC[C@H](C)C(=O)O[C@H]1CCC=C2C=C[C@H](C)[C@H](CC[C@@H]3C[C@@H](O)CC(=O)O3)[C@H]21 [MEVASTATIN]	Compound metabolized	Compound metabolized	Compound metabolized	Compound metabolized	Compound metabolized	Compound metabolized	Compound metabolized	Compound metabolized	Compound metabolized	Compound metabolized	Compound metabolized	Compound metabolized	Compound NOT metabolized	Compound metabolized	Compound metabolized	Compound metabolized	Compound metabolized	Compound metabolized	Compound metabolized	–
CCCc1nc(C(C)(C)O)c(C(=O)OCc2oc(=O)oc2C)n1Cc1ccc(-c2ccccc2-c2nnn[nH]2)cc1 [OLMESARTAN MEDOXOMIL]	–	Compound metabolized	Compound metabolized	Compound metabolized	Compound metabolized	Compound metabolized	Compound metabolized	Compound metabolized	Compound metabolized	Compound metabolized	Compound metabolized	Compound metabolized	Compound metabolized	Compound metabolized	Compound metabolized	Compound metabolized	Compound metabolized	Compound metabolized	–	–
CNC(=C[N+](=O)[O-])NCCSCc1ccc(CN(C)C)o1 [RANITIDINE]	–	Compound metabolized	Compound NOT metabolized	Compound metabolized	Compound metabolized	Compound NOT metabolized	Compound metabolized	Compound metabolized	Compound NOT metabolized	Compound metabolized	Compound NOT metabolized	Compound NOT metabolized	Compound NOT metabolized	Compound metabolized	Compound metabolized	Compound NOT metabolized	Compound metabolized	Compound metabolized	Compound NOT metabolized	Compound NOT metabolized

Now from value to molecule:

Bacterial Biotransformation [1]	Bacterial Biotransformation [2]	Bacterial Biotransformation [3]	Bacterial Biotransformation [4]	Bacterial Biotransformation [5]	Bacterial Biotransformation [6]	Bacterial Biotransformation [7]	Bacterial Biotransformation [8]	Bacterial Biotransformation [9]	Bacterial Biotransformation [10]	Bacterial Biotransformation [11]	Bacterial Biotransformation [12]	Bacterial Biotransformation [13]	Bacterial Biotransformation [14]	Bacterial Biotransformation [15]	Bacterial Biotransformation [16]	Bacterial Biotransformation [17]	Bacterial Biotransformation [18]	Bacterial Biotransformation [19]	Bacterial Biotransformation [20]	Structure (SMILES)
Compound NOT metabolized	Compound metabolized	Compound NOT metabolized	Compound metabolized	Compound metabolized	Compound metabolized	Compound metabolized	Compound metabolized	Compound metabolized	Compound metabolized	Compound metabolized	Compound metabolized	Compound metabolized	Compound metabolized	Compound NOT metabolized	Compound metabolized	Compound metabolized	Compound metabolized	Compound metabolized	–	CC(C)(Oc1ccc(CCNC(=O)c2ccc(Cl)cc2)cc1)C(=O)O [BEZAFIBRATE]
–	Compound metabolized	Compound NOT metabolized	Compound metabolized	Compound NOT metabolized	Compound NOT metabolized	Compound metabolized	–	Compound NOT metabolized	Compound NOT metabolized	Compound NOT metabolized	–	Compound metabolized	Compound NOT metabolized	Compound NOT metabolized	Compound NOT metabolized	Compound metabolized	Compound NOT metabolized	–	Compound NOT metabolized	CC#C[C@]1(O)CC[C@H]2[C@@H]3CCC4=CC(=O)CCC4=C3[C@@H](c3ccc(N(C)C)cc3)C[C@@]21C [MIFEPRISTONE]
Compound metabolized	Compound metabolized	Compound NOT metabolized	Compound metabolized	Compound NOT metabolized	Compound metabolized	Compound metabolized	Compound metabolized	Compound metabolized	Compound metabolized	Compound metabolized	Compound metabolized	–	Compound metabolized	Compound metabolized	Compound metabolized	Compound metabolized	Compound metabolized	Compound metabolized	Compound NOT metabolized	Cc1nc2n(c(=O)c1CCN1CCC(c3noc4cc(F)ccc34)CC1)CCCC2O (configuration not stated) [PALIPERIDONE]
